Consider 34 molecules from ChEMBL document CHEMBL5518188, “Discovery of 4-amino-1,6-dihydro-7H-pyrrolo[2,3-d]pyridazin-7-one derivatives as potential receptor-interacting serine/threonine-protein kinase 1 (RIPK1) inhibitors” (Eur J Med Chem, 2024).

Structures are written as SMILES.

Broadly, the IC50 is the concentration that inhibits the measured activity by half. Broadly, the EC50 is the midpoint of the concentration-response curve. A higher EC50 goes with a less potent agent.

For test [1], the target named is T1, Receptor-interacting serine/threonine-protein kinase 1 (Homo sapiens, UniProt Q13546).
T1 sequence (Q13546 whole entry): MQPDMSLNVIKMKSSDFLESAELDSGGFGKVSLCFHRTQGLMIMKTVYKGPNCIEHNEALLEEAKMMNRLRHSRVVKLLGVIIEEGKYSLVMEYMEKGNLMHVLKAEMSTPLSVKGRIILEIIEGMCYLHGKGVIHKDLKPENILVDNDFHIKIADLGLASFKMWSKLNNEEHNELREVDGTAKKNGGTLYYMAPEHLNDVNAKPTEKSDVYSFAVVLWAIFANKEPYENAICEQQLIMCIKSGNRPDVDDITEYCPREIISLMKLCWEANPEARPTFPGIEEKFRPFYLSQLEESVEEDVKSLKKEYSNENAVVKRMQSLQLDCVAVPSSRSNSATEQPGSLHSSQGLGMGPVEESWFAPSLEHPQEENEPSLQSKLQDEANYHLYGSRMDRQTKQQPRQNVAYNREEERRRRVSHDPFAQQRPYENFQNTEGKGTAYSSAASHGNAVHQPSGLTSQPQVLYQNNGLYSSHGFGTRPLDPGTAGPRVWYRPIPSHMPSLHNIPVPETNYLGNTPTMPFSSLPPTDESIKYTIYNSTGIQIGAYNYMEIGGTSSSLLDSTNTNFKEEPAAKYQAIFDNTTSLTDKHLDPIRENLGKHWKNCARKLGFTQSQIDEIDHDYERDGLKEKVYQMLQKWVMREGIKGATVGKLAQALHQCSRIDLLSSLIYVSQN
As to the kind of experiment: Inhibition of RIPK1 (unknown origin) in presence of ATP by kinaseProfiler assay.

The next test relates to L929. As to the kind of experiment: Anti-necroptosis activity against TSZ-induced mouse L929 cells. It is filed as functional, cell-based.
The test system of the next test is HT-29. Briefly: Anti-necroptosis activity against TSZ-induced human HT-29 cells. The format is functional, cell-based.
In another test the test system is U-937. As to the kind of experiment: Anti-necroptosis activity against TSZ-induced human U-937 cells. The format is functional, cell-based.

Turning to `CCn1cc(-c2ccc3c(c2)CCN3C(=O)Cc2cccc(OC(F)(F)F)c2)c2ncnc(N)c21`, the IC50 in test [1] was above 1000 nM.
On the same count and under the same terms, to `NC(=O)c1cc(-c2ccc3c(c2)CCN3C(=O)Cc2cccc(OC(F)(F)F)c2)ccc1N` belongs above 1000 nM; to `CCc1nc(-c2ccc3c(c2)CCN3C(=O)Cc2cccc(OC(F)(F)F)c2)c2c(N)nccn12`, 112 nM.
As to `CCn1nc(-c2ccc3c(c2)CCN3C(=O)Cc2ccccc2)c2c(N)n[nH]c(=O)c21`, the values for the EC50 with L929, in the test on HT-29 and in the test with U-937 were 142 nM, 546 nM and 1020 nM, respectively. Besides, the concentration for half-maximal inhibition (IC50) in test [1] was above 1000 nM.
For `CCn1nc(-c2ccc3c(c2)CCN3C(=O)CC2CCCCC2)c2c(N)n[nH]c(=O)c21`, in that order: 64.5 nM, 891 nM, 879 nM and above 1000 nM.
For the molecule `Nc1n[nH]c(=O)c2c1c(-c1ccc3c(c1)CCN3C(=O)Cc1cccc(OC(F)(F)F)c1)nn2CCC1CCCCC1`, the EC50 with L929 worked out at 16.2 nM; with HT-29, 246 nM; in the test on U-937 it was 103 nM. In addition, the IC50 in test [1] is above 1000 nM.
As to `CCn1nc(-c2ccc3c(c2)CCN3C(=O)Cc2cc(F)cc(C(F)(F)F)c2)c2c(N)n[nH]c(=O)c21`, the EC50 came out at 12.8 nM with L929, 331 nM in the test on HT-29 and 283 nM in the test on U-937. The IC50 in test [1] is 475 nM.
For `CCn1nc(-c2ccc3c(c2)CCN3C(=O)Cc2ccc3c(c2)OCO3)c2c(N)n[nH]c(=O)c21`, in that order: 114 nM, 562 nM, 703 nM and 915 nM.
Taken in the same sequence, the figures for `CCn1nc(-c2ccc3c(c2)CCN3C(=O)[C@H](C)c2ccccc2)c2c(N)n[nH]c(=O)c21` were above 1000 nM, above 1000 nM, above 1000 nM and above 1000 nM.
For `Nc1n[nH]c(=O)c2c1c(-c1ccc3c(c1)CCN3C(=O)Cc1cccc(OC(F)(F)F)c1)nn2CCN1CCCC1`, in that order: 54.4 nM, 63 nM, 173 nM and 512 nM.
With `NC(=O)c1cncc(-c2ccc3c(c2)CCN3C(=O)Cc2cccc(OC(F)(F)F)c2)c1`, in test [1], the IC50 worked out at 157 nM.
Consider `CC(C)CCn1nc(-c2ccc3c(c2)CCN3C(=O)Cc2cccc(OC(F)(F)F)c2)c2c(N)n[nH]c(=O)c21`, for which the concentration for a half-maximal effect (EC50) in the test with L929 was determined as 6.36 nM; in the test on HT-29, 8.24 nM; with U-937, 18.5 nM. Further, the IC50 in test [1] was 114 nM.
As for `Nc1nc2cccc(-c3ccc4c(c3)CCN4C(=O)Cc3cccc(OC(F)(F)F)c3)n2n1`, the half-inhibitory concentration (IC50) in test [1] is above 1000 nM.
For `CCn1nc(-c2ccc3c(c2)CCN3C(=O)Cc2cccc(C(F)(F)F)c2)c2c(N)n[nH]c(=O)c21`, the EC50 came out at 1.75 nM in the test on L929, 11.3 nM in the test with HT-29 and 1.38 nM in the test on U-937. Also, the IC50 in test [1] turned out to be 135 nM.
`Nc1n[nH]c(=O)c2c1c(-c1ccc3c(c1)CCN3C(=O)Cc1cccc(OC(F)(F)F)c1)nn2CC1CCC1`: the EC50 in the test with L929 is 1.35 nM; in the test with HT-29, 34 nM; in the test with U-937 it was 1.87 nM. The IC50 in test [1] is 68.4 nM.
Taken in the same sequence, the figures for `CCn1nc(-c2ccc3c(c2)CCN3C(=O)Cc2cccc(F)c2F)c2c(N)n[nH]c(=O)c21` were 123 nM, 579 nM, 946 nM and above 1000 nM.
Taken in the same sequence, the figures for `Nc1n[nH]c(=O)c2c1c(-c1ccc3c(c1)CCN3C(=O)Cc1cccc(OC(F)(F)F)c1)nn2Cc1ccc(F)cc1` were 30.2 nM, 257 nM, 112 nM and 290 nM.
Turning to `CCNc1ncnc(N)c1-c1ccc2c(c1)CCN2C(=O)Cc1cccc(OC(F)(F)F)c1`, the IC50 in test [1] was above 1000 nM.
On the same count and under the same terms, for `CCn1cc(-c2ccc3c(c2)CCN3C(=O)Cc2cccc(OC(F)(F)F)c2)c2c(=O)[nH]cnc21` the value was above 1000 nM; for `NC(=O)c1cccc(-c2ccc3c(c2)CCN3C(=O)Cc2cccc(OC(F)(F)F)c2)c1`, 102 nM.
In the case of `Cn1nc(-c2ccc3c(c2)CCN3C(=O)Cc2cccc(OC(F)(F)F)c2)c2c(N)n[nH]c(=O)c21`, the results for the EC50 in the test on L929, with HT-29 and in the test on U-937 were 3.4 nM, 21.4 nM and 37.1 nM, respectively. Besides, the IC50 in test [1] was 140 nM.
For `CCn1nc(-c2ccc3c(c2)CCN3C(=O)C2(c3ccccc3)CC2)c2c(N)n[nH]c(=O)c21`, the EC50 with L929, in the test with HT-29 and in the test on U-937 was above 1000 nM each time. The IC50 in test [1] is above 1000 nM.
Regarding `Nc1n[nH]c(=O)c2c1c(-c1ccc3c(c1)CCN3C(=O)Cc1cccc(OC(F)(F)F)c1)nn2CCC1CCCC1`, the EC50 in the test on L929 was 7.61 nM; with HT-29, 134 nM; with U-937, 60.1 nM. Besides, the concentration for half-maximal inhibition (IC50) in test [1] was above 1000 nM.
Taken in the same sequence, the figures for `CCn1nc(-c2ccc3c(c2)CCN3C(=O)Cc2ccc(Oc3ccccc3)cc2)c2c(N)n[nH]c(=O)c21` were 311 nM, 905 nM, 812 nM and 941 nM.
Consider `CCn1nc(-c2ccc3c(c2)CCN3C(=O)CCc2ccccc2)c2c(N)n[nH]c(=O)c21`, for which the half-maximal effective concentration (EC50) with L929 came out at 42.1 nM; in the test with HT-29, 149 nM; in the test with U-937, 232 nM. Moreover, in test [1], the IC50 is 191 nM.
Taken in the same sequence, the figures for `CCn1nc(-c2ccc3c(c2)CCN3C(=O)c2cccc(OC(F)(F)F)c2)c2c(N)n[nH]c(=O)c21` were above 1000 nM, above 1000 nM, above 1000 nM and above 1000 nM.
In the case of `CCn1nc(-c2ccc3c(c2)CCN3C(C)=O)c2c(N)n[nH]c(=O)c21`, the IC50 in test [1] was above 1000 nM.
`CCn1nc(-c2ccc3c(c2)CCN3C(=O)CCc2cccc(OC(F)(F)F)c2)c2c(N)n[nH]c(=O)c21`: the EC50 with L929 was 20.3 nM; with HT-29 it was 4.62 nM; with U-937, 4.82 nM. Besides, the IC50 in test [1] came out at 97.6 nM.
Taken in the same sequence, the figures for `CCn1nc(-c2ccc3c(c2)CCN3Cc2cccc(OC(F)(F)F)c2)c2c(N)n[nH]c(=O)c21` were 451 nM, above 1000 nM, 990 nM and above 1000 nM.
`CCn1nc(-c2ccc3c(c2)CCN3C(=O)Cc2cccc(OC)c2)c2c(N)n[nH]c(=O)c21`: the IC50 in test [1] was above 1000 nM.
Regarding `CCn1nc(-c2ccc3c(c2)CCN3C(=O)Cc2ccc(OC(F)(F)F)cc2)c2c(N)n[nH]c(=O)c21`, the EC50 in the test on L929 was 726 nM; in the test on HT-29, above 1000 nM; in the test on U-937, 638 nM. In test [1], the IC50 amounted to 177 nM.
For `CCn1nc(-c2ccc3c(c2)CCN3C(=O)CCc2cccc(C(F)(F)F)c2)c2c(N)n[nH]c(=O)c21`, in that order: 4.71 nM, 19.3 nM, 33 nM and 111 nM.
For `Nc1n[nH]c(=O)c2c1c(-c1ccc3c(c1)CCN3C(=O)Cc1cccc(OC(F)(F)F)c1)nn2CCC1CC1`, in that order: 3.67 nM, 18.2 nM, 4.04 nM and 70.3 nM.
For `CCn1nc(-c2ccc3c(c2)CCN3C(=O)Cc2cccc(F)c2)c2c(N)n[nH]c(=O)c21`, in that order: 45.6 nM, 597 nM, 722 nM and above 1000 nM.
